# Source: US10774053B2, “HIV protease inhibitors” (Gilead Sciences, Inc., priority 2017, dated 2020)
# Tested on: HIV-1 (IIIB) in MT-4 cells
# Test: microbe, parasite or virus in culture
# Format: cell-based
# Conditions: Human immunodeficiency virus 1, IIIB, MT4, MT-4 cells, HIV-1; read-out: MT4 EC50
row,SMILES,EC50
1,C[C@H](NC(=O)OC[C@H](c1ccc(Cl)c(-n2ncnc2C(F)F)c1)N1C(=N)N[C@](CC(C)(C)C)(c2ccc(-c3cnn(C4CC4)c3)cc2F)C1=O)C(F)(F)F [Compound 315],0.00997 µM
2,CC(C)(C)C[C@]1(c2ccc(-c3cnn(C4CC4)c3)c(Cl)c2)NC(=N)N([C@H](COC(=O)NC2(C(F)(F)F)CC2)c2ccc(Cl)c(-n3ncnc3C(F)F)c2)C1=O [Compound 316],0.0133 µM
3,CC(C)(C)C[C@]1(c2ccc(-c3cn(C4CC4)nc3F)cc2)NC(=N)N([C@H](COC(=O)NC2(C(F)(F)F)CC2)c2ccc(Cl)c(-n3ncnc3C(F)F)c2)C1=O [Compound 318],0.0132 µM
4,CC(C)(C)C[C@]1(c2ccc(-c3cnn(C4CC4)c3)cc2)NC(=N)N([C@H](COC(=O)NC2(C(F)(F)F)CC2)c2ccc(Cl)c(-n3cncn3)c2)C1=O [Compound 319],0.0178 µM
5,CC(C)(C)C[C@]1(c2ccc(-c3ccccn3)cc2)NC(=N)N([C@H](COC(=O)NC2(C(F)(F)F)CC2)c2ccc(Cl)c(-n3cncn3)c2)C1=O [Compound 320],0.0225 µM
6,CC(C)(C)C[C@]1(c2ccc(-c3ccns3)cc2)NC(=N)N([C@H](COC(=O)NC2(C(F)(F)F)CC2)c2ccc(Cl)c(-n3cncn3)c2)C1=O [Compound 321],0.0208 µM
7,CC(C)(C)C[C@]1(c2ccc(-c3ccsn3)cc2)NC(=N)N([C@H](COC(=O)NC2(C(F)(F)F)CC2)c2cccc(-n3ncnc3C(F)F)c2)C1=O [Compound 322],0.039 µM
8,CC1(NC(=O)OC[C@H](c2ccc(Cl)c(-n3cccn3)c2)N2C(=N)N[C@](CC(C)(C)C(F)(F)F)(c3ccc(-c4cnn(C(F)F)c4)cc3)C2=O)CC1 [Compound 323],0.0507 µM
9,CC1(NC(=O)OC[C@H](c2ccc(Cl)c(-n3cccn3)c2)N2C(=N)N[C@](CC(C)(C)C(F)(F)F)(c3ccc(-c4cnn(C5CC5)c4)cc3)C2=O)CC1 [Compound 324],0.0278 µM
10,CC(C)(C)C[C@]1(c2ccc(N3CCn4c(nnc4C(F)(F)F)C3)cc2)NC(=N)N([C@H](COC(=O)NC2(C(F)(F)F)CC2)c2ccc(Cl)c(-n3ncnc3C(F)F)c2)C1=O [Compound 326],0.0529 µM
11,CC(C)(F)C[C@]1(c2ccc(-c3cnccn3)cc2)NC(=N)N([C@H](COC(=O)NC2(C(F)(F)F)CC2)c2ccc(Cl)c(-n3ncnc3C(F)F)c2)C1=O [Compound 328],0.0224 µM
12,CC(C)(F)C[C@]1(c2ccc(-c3ncccn3)cc2)NC(=N)N([C@H](COC(=O)NC2(C(F)(F)F)CC2)c2ccc(Cl)c(-n3ncnc3C(F)F)c2)C1=O [Compound 329],0.023 µM
13,CC(C)(C)C[C@]1(c2ccc(-c3cnn(C(F)F)c3)cc2)NC(=N)N([C@H](COC(=O)N[C@H]2C[C@@H]2C(F)F)c2ccc(Cl)c(-n3ncnc3C(F)F)c2)C1=O [Compound 332],0.0123 µM
14,CC(C)(C)C[C@]1(c2ccc(-c3cnn(C(F)F)c3)cc2)NC(=N)N([C@H](COC(=O)N[C@@H]2C[C@H]2C(F)F)c2ccc(Cl)c(-n3ncnc3C(F)F)c2)C1=O [Compound 333],0.0105 µM
15,CC(C)(C)C[C@]1(c2ccc(-c3cnn(C(F)F)c3)cc2)NC(=N)N([C@H](COC(=O)N[C@@H]2C[C@H]2F)c2ccc(Cl)c(-n3ncnc3C(F)F)c2)C1=O [Compound 337],0.00975 µM
16,CC(C)(C)C[C@]1(c2ccc(-c3cnn(C(F)F)c3)cc2)NC(=N)N([C@H](COC(=O)N[C@H]2C[C@@H]2F)c2ccc(Cl)c(-n3ncnc3C(F)F)c2)C1=O [Compound 338],0.00994 µM
17,CC(C)(C)C[C@]1(c2ccc(-c3cnn(C(F)F)c3)c(F)c2)NC(=N)N([C@H](COC(=O)N[C@H]2CC2(F)F)c2ccc(Cl)c(-n3ncnc3C(F)F)c2)C1=O [Compound 340],0.00667 µM
18,CC(C)(C)C[C@]1(c2ccc(-c3cnn(C(F)F)c3)cc2)NC(=N)N([C@H](COC(=O)N[C@@H]2CC23CC3)c2ccc(Cl)c(-n3ncnc3C(F)F)c2)C1=O [Compound 341],0.00854 µM
19,CC(C)(C)C[C@]1(c2ccc(-c3cnn(C(F)F)c3)cc2)NC(=N)N([C@H](COC(=O)N[C@H]2CC23CC3)c2ccc(Cl)c(-n3ncnc3C(F)F)c2)C1=O [Compound 342],0.00892 µM
